Like-named read-outs stand apart in the source and are kept apart here. Values belong to the compound of their own block, whether it stands above or below them.
How the values were obtained:
Format in all cases: biochemical
[1] = biological target: T1, Carnosine dipeptidase 2 (CNDP2) (Mus musculus, UniProt Q9D1A2); experiment: LC-MS assay of Cys-Gly hydrolysis by purified CNDP2 (Cys-NEM readout; IC50 […] by Gly)
T1 sequence (Q9D1A2 1-475): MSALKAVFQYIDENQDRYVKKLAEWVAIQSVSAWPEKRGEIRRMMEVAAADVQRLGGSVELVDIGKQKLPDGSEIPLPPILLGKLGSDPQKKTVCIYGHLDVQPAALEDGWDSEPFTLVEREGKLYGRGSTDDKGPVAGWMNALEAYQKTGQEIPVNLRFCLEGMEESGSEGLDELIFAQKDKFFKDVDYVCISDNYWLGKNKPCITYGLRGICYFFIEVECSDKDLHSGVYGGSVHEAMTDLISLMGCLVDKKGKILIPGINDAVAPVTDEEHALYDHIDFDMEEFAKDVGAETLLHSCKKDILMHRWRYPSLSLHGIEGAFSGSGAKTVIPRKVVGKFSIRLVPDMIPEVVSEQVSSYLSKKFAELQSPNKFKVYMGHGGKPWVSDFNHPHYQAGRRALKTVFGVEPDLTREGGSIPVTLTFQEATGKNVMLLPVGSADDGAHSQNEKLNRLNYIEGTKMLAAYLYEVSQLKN

[2] = biological target: T1, Carnosine dipeptidase 2 (CNDP2); experiment: LC-MS detection of Cys-NEM and Gly products from Cys-Gly ([…]) hydrolysed by purified CNDP2
[3] = biological target: T1, Carnosine dipeptidase 2 (CNDP2); experiment: LC-MS assay of Cys-Gly hydrolysis by purified CNDP2 (Cys-NEM readout; IC50 […] by Gly); remark: listed apart in the source

- IC50 [1]: 118 µM
Structure (SMILES): O=C(Nc1nnc(-c2ccc(F)cc2)o1)c1ccc(Cl)cc1 [KKL-35]

Structure (SMILES): N[C@@H](CS)C(=O)NCC(=O)O [Cys-Gly]
- LC-MS detection of Cys-NEM and Gly products from Cys-Gly (5 mM) hydrolysed by pu [2]: Cys-Gly was hydrolyzed by CNDP2 to produce cysteine (Cys) and glycine (Gly).

Structure (SMILES): CC(C)C[C@H](NC(=O)[C@@H](O)[C@H](N)Cc1ccccc1)C(=O)O [Bestatin]
- IC50 [3]: 1 µM

From article PMC12655758, “Identification of KKL-35 as a Novel Carnosine Dipeptidase 2 (CNDP2) Inhibitor by In Silico Screening” (Molecules, 2025)
